{"source": "patent US7146204B2", "about": "“Method and apparatus for quantitatively evaluating a kidney” (Yeda Research and Development Co., Ltd., priority 2002, dated 2006)", "key": {"rat kidney [1]": {"test_system": "rat kidney", "test": "dynamic 23Na MRI of renal sodium distribution after bolus injection of diuretic", "assay_type": "in vivo", "settings": "for characteristic time constant of sodium decay in the inner medulla: dynamic 23Na MRI after bolus injection, fitted to Equation 1, n=7; for decrease in sodium level in the inner medulla: relative to pre-treatment, diuresis steady state level, n=7", "procedure": "Materials and Methods—Animals: Studies were performed on female Lewis rats, 2–4 months old and weighing 250–300 g, that had free access to food and water. […] All animal protocols and maintenance procedures were in accordance with the guidelines of the Committee on Animals of the Weizmann Institute of Science, and were approved by this Committee. […] Only one diuretic was injected into each rat. […] Image analysis: Analysis of the kidney images was performed on selected regions of interest (ROIs) in the outer, median and inner parts of the kidney, representing the cortex, outer and inner medulla, respectively. The ROIs were defined on the corresponding coronal proton image recorded prior to the sodium images, at the same spatial resolution. The average digitized pixel intensity for each ROI was measured, and the sodium gradient was assessed by averaging the ratio of the sodium signal intensity between the inner and the outer medulla, and between the inner medulla and the cortex. […] In this analysis, the signal intensity in each pixel was measured from the cortex to the inner medulla along the corticomedullary axis. This yielded a graph of pixel signal intensity versus the distance of the pixel from the cortex. In the dynamic study, the average signal intensities of the inner medulla and the cortex ROIs, defined on the proton image, were measured in sodium images recorded sequentially and were then plotted against time. Statistical analysis to evaluate differences between pixels or ROIs in the same kidney, or before and after diuretic treatment, were performed by a two-tailed paired Student's t-test; otherwise, the unpaired version of this test was used. Results are presented as mean±SEM."}, "rat kidney [2]": {"test_system": "rat kidney", "test": "steady state diuresis 23Na MRI of corticomedullary sodium gradient", "assay_type": "in vivo", "settings": "for reduction in sodium content in the inner medulla (summary statement): after bolus injection; for change of the cortical-outer medullar sodium gradient versus control / cortical-outer medullar sodium gradient (slope): pixel-by-pixel analysis", "procedure": "Materials and Methods—Animals: Studies were performed on female Lewis rats, 2–4 months old and weighing 250–300 g, that had free access to food and water. Before MRI scanning, the rats were anesthetized by an intraperitoneal injection of sodium pentobarbital at a dosage of 0.04 mg/g body wt. All animal protocols and maintenance procedures were in accordance with the guidelines of the Committee on Animals of the Weizmann Institute of Science, and were approved by this Committee.\n(§1) Mannitol solution (20%, 1 ml) and saline solution (0.9% NaCl, 1 ml) were injected as a bolus into the tail vein. Only one diuretic was injected into each rat.\nIn vivo MRI: ^1H and ^23Na spectra and images were recorded at 200 and 53 MHz, respectively with a 4.7 T Biospec spectrometer (Bruker, Rheinstetten, Germany) using a home-built 3 cm double-tuned surface coil. The rat was placed on the coil in a supine position, keeping the estimated kidney position approximately in the middle of the coil. 3D ^1H gradient echo images were recorded to localize the exact kidney position, using TE/TR of 6/30 ms FOV of 12×12×3.2 cm and a matrix of 256×256×32. For defining the regions of interest (ROI), 3D ^1H images were recorded with the same spatial resolution as that of the sodium images.\nIn the “steady state” studies, sodium images were recorded prior to injection of the diuretic (control measurement) and fifteen minutes after its injection. 3D ^23Na gradient echo images were recorded using a TE/TR of 3.1/60 ms and a 90° OSIRREAD adiabatic pulse, FOV of 12×12×8 cm, and a matrix of 128×128×16 with 10 or 20 scans (20 or 40 min, respectively).\nImage analysis: Analysis of the kidney images was performed on selected regions of interest (ROIs) in the outer, median and inner parts of the kidney, representing the cortex, outer and inner medulla, respectively. The ROIs were defined on the corresponding coronal proton image recorded prior to the sodium images, at the same spatial resolution. The average digitized pixel intensity for each ROI was measured, and the sodium gradient was assessed by averaging the ratio of the sodium signal intensity between the inner and the outer medulla, and between the inner medulla and the cortex.\nIn addition, a pixel-by-pixel analysis was performed, in order to assess the behavior of the NMR sodium signal along the corticomedullary axis. In this analysis, the signal intensity in each pixel was measured from the cortex to the inner medulla along the corticomedullary axis. This yielded a graph of pixel signal intensity versus the distance of the pixel from the cortex. In the dynamic study, the average signal intensities of the inner medulla and the cortex ROIs, defined on the proton image, were measured in sodium images recorded sequentially and were then plotted against time.\nStatistical analysis to evaluate differences between pixels or ROIs in the same kidney, or before and after diuretic treatment, were performed by a two-tailed paired Student's t-test; otherwise, the unpaired version of this test was used. Results are presented as mean±SEM.\nIn-vivo MRI: ^1H and ^23Na images and spectra were recorded at 200 and 53 MHz respectively with a 4.7 T Biospec spectrometer (Bruker, Karlsrhue, Germany) using a home built 3-cm, ^1H and ^23Na tuned surface coil. The rat was placed on the coil in a supine position with the kidney positioned in the middle of the coil. Axial and coronal 3D ^1H gradient echo images were recorded for localization of the kidney using an echo time/repetition time (TE/TR) of 6/30 ms FOV of 12×12×3.2 cm and matrix of 256×256×32. 3D gradient echo ^23Na images were recorded using (TE/TR) of 1.7/60 ms and a 90° OSIRREAD adiabatic pulse, field of view (FOV) of 12×12×8 […], and matrix of 128×128×16, with 20 scans (40 min).\nThe sodium image was analyzed by a pixel by pixel analysis that was performed in order to assess the behavior of the NMR sodium signal along the corticomedullary axis."}, "[3]": {"test": "urine sodium concentration by 23Na NMR spectroscopy", "assay_type": "in vivo, rat", "settings": "urine collected from 15 min after injection, n=3", "procedure": "as §1\nUrine sodium: Urine samples of untreated (control) and diuretic rats were collected in a metabolic cage. Collection of the urine from the diuretic rats started 15 minutes after injection of the diuretic, when the urine flow was constant. The urine samples were then centrifuged, and the supernatants transferred to a 5 mm NMR tube placed in the center of a 10 mm NMR tube. The external tube was used as an external reference, and contained a solution of 120 mM NaCl and 5 mM of the shift reagent: thulium (III) 1,4,7,10-tetraacyclododecane-1,4,7,10-tetrakis (methylene phosphonate) (TmDOTP^5−) (Macrocyclics, Dallas, Tex., USA) reaching total [Na^+] of 150 mM. ^23Na NMR spectra were recorded with a Bruker DMX-400 spectrometer (Bruker, Rheinstetten, Germany), using a multinuclei broad band probe at 106 MHz by acquiring 10 transients with 90° pulses, pulse-to-acquisition time of delay (DE) of 6 μs, 0.47 sec repetition time (TR) and 0.27 sec acquisition time. Analysis of the ^23Na spectra was performed with an XWIN-NMR Bruker software package. Sodium concentration in the urine was calculated from the integrated area of its signal referenced to the integrated area of the shifted signal of the sodium in the external tube solution (150 mM)."}, "rat kidney [4]": {"test_system": "rat kidney", "test": "steady state diuresis 23Na MRI of corticomedullary sodium gradient", "assay_type": "in vivo", "settings": "mannitol (1 ml, 0.1N), n=7"}, "[5]": {"settings": "steady state diuresis, furosemide 10 mg/kg body wt, n=7"}}, "note": "Entries after “also recorded” stand apart in the source; their conditions may differ.", "data": [{"compound": "NS(=O)(=O)c1cc(C(=O)O)c(NCc2ccco2)cc1Cl", "note": "[furosemide]", "values": [{"measurement": "characteristic time constant of sodium decay in the inner medulla", "setting": "rat kidney [1]", "result": "6.1 ± 0.8", "unit": "min"}, {"measurement": "decrease in sodium level in the inner medulla", "setting": "rat kidney [1]; dynamic study", "result": "44±6", "unit": "%"}, {"measurement": "reduction in sodium content in the inner medulla (summary statement)", "setting": "rat kidney [2]; diuretic steady state", "result": 50, "unit": "%"}, {"measurement": "change of the cortical-outer medullar sodium gradient versus control", "setting": "rat kidney [2]; diuresis steady state", "result": "five-fold reduction"}, {"measurement": "cortical-outer medullar sodium gradient (slope)", "setting": "rat kidney [2]; diuresis steady state, n=7", "result": "0.10±0.01", "unit": "a.u.×mm^−1"}, {"measurement": "cortico-outer medullar sodium gradient during furosemide diuresis", "setting": "rat kidney [2]; furosemide steady state diuresis, 10 mg/kg wt, n=7", "result": "0.10±0.01", "unit": "a.u×mm^−1"}, {"measurement": "effect on the corticomedullary sodium gradient", "setting": "rat kidney [2]; steady state diuresis", "result": "almost completely cancelled; also recorded: almost complete cancellation"}, {"measurement": "decrease in sodium signal intensity in the inner medulla", "setting": "rat kidney [2]; steady state diuresis, furosemide 1 mg/kg body weight, n=3", "result": "10±2", "unit": "%"}, {"measurement": "decrease in sodium signal intensity in the inner medulla", "setting": "rat kidney [2]; steady state diuresis, furosemide 7 mg/kg body weight, n=4", "result": "40±4", "unit": "%"}, {"measurement": "decrease of average sodium signal intensity in the inner medulla", "setting": "rat kidney [2]; [5]", "result": "47±5", "unit": "%"}, {"measurement": "decrease of average sodium signal intensity in the outer medulla", "setting": "rat kidney [2]; [5]", "result": "6±2", "unit": "%"}, {"measurement": "increase of average sodium signal intensity in the cortex", "setting": "rat kidney [2]; [5]", "result": "25%±3%"}, {"measurement": "increase of urine sodium concentration compared to the control", "setting": "[3]", "result": "50±5", "unit": "%"}]}, {"compound": "OC[C@@H](O)[C@@H](O)[C@H](O)[C@H](O)CO", "note": "[mannitol]", "values": [{"measurement": "characteristic time constant of sodium decay in the inner medulla", "setting": "rat kidney [1]", "result": "2.5 ± 0.4", "unit": "min"}, {"measurement": "total increase in sodium concentration in the cortex", "setting": "rat kidney [1]; dynamic study, after bolus injection", "result": "about 25%"}, {"measurement": "rate of sodium reduction in the inner medulla relative to furosemide", "setting": "rat kidney [1]; dynamic study, p=0.002", "result": "twice as rapidly; also recorded: more than twofold faster; also recorded: twofold faster decay"}, {"measurement": "decrease in sodium level in the inner medulla", "setting": "rat kidney [1]; dynamic study", "result": "52±5", "unit": "%"}, {"measurement": "reduction in sodium content in the inner medulla (summary statement)", "setting": "rat kidney [2]; diuretic steady state", "result": 50, "unit": "%"}, {"measurement": "cortex to outer medulla sodium gradient relative to furosemide induced diuresis", "setting": "rat kidney [2]; diuresis steady state", "result": "fivefold higher"}, {"measurement": "change of the cortical-outer medullar sodium gradient versus control", "setting": "rat kidney [2]; diuresis steady state", "result": "remained similar to that seen in control kidney"}, {"measurement": "cortical-outer medullar sodium gradient (slope)", "setting": "rat kidney [2]; diuresis steady state, n=7", "result": "0.45±0.12", "unit": "a.u.×mm^−1"}, {"measurement": "change of the cortical-outer medullar sodium gradient versus control", "setting": "rat kidney [2]; diuresis steady state, listed as Mannitol", "result": "did not affect"}, {"measurement": "sodium concentration in the outer medulla compared to control", "setting": "rat kidney [2]; diuretic steady state", "result": "increased compared to control"}, {"measurement": "effect on the corticomedullary sodium gradient", "setting": "rat kidney [2]; steady state diuresis", "result": "marked breakdown"}, {"measurement": "decrease of urine sodium concentration compared to the control", "setting": "[3]", "result": "49±3", "unit": "%"}, {"measurement": "decrease of sodium concentration in the inner medulla", "setting": "rat kidney [4]", "result": "52±1", "unit": "%"}, {"measurement": "increase of sodium signal intensity in the cortex", "setting": "rat kidney [4]", "result": "20±2", "unit": "%"}, {"measurement": "increase of sodium signal intensity in the outer medulla", "setting": "rat kidney [4]", "result": "13±1", "unit": "%"}]}]}
